Source: patent publication US20220074923A1, “METHODS OF IDENTIFYING PARKIN-MEDIATED MITOPHAGY ACTIVATING AGENTS” (THE GOVERNING COUNCIL OF THE UNIVERSITY OF TORONTO, priority 2018, published 2022)

Columns and labels:
Type in all cases: cell-based
[1] = tested on: differentiated SH-SY5Y cells; test: Cell viability determination (ATP levels normalized to protein); settings: 24 hours
Protocol: SH-SY5Y cells were differentiated according to previously established protocol consisting of sequential treatment with retinoic acid followed by brain-derived neurotrophic factor^10. Cells were then seeded into white 96-well plates with white bottom and allowed to adhere overnight. Varying doses of SR3677 were combined with 500 μM paraquat and administered for 24 hours. Controls treated with 0.5 μM SR3677, equivalent volume DMSO and paraquat alone were also included. Following 24-hour incubation, cell media was aspirated and THE lysis buffer (50 mM Tris-HCl, 100 mM NaCl, 0.1 mM EDTA) containing protease inhibitor cocktail was added to each well. Half of the lysate volume was removed and aliquoted into a separate 96-well plate. ATP levels were measured in the opaque plate using the ATP determination (ThermoFisher A22066) assay kit and protein concentrations were measured using the Pierce BCA (ThermoFisher #23225) assay kit. ATP levels were normalized to protein concentration and then by the ratio for cells treated with paraquat alone in a control well on each plate.

HK2 = HK2 mitochondrial fraction and phosphorylation (fractionation, Phos-tag immunoblot)
Protocol: (a) SH-SY5Y treated with either 0.5 μM SR3677 or with DMSO were separated into total cell cytosolic and mitochondrial fractions. Fractions were separated by SDS-PAGE and immunoblotting was performed with anti-HK2 and anti-ATP5A antibodies. (b) The proposed mechanism through which SR3677 increases Parkin recruitment. (c) Cells serum-starved for 2 hours were treated with either DMSO or SR3677 for 10 or 30 minutes prior to harvesting. Lysates were separated by SDS-PAGE and immunoblotting was performed with anti-HK2 and anti-actin antibodies. Samples were also run on Phos-tag gels in parallel and immunoblotting was performed with anti-HK2 antibody. (d) Densitometry analysis was performed to quantify HK2 levels in each sample, followed by (e) normalization to mitochondrial marker, CValpha. Average HK2/CValpha ratios are plotted (n=2 independent experiments). (f) Densitometry analysis was performed on the band indicated by the arrow in (c). The average intensity of the indicated band normalized to actin loading control is expressed[…] (n=3 independent experiments). P-values were determined by paired student's t-test for (b, f), *P<0.05. All error bars represent s.e.m. […]

HEK293 GFP Parkin cells [2] = test: High throughput small molecule screen for Parkin recruitment to mitochondria (high content imaging); settings: 4 μM, 16 h, then CCCP 2 h; rank out of 480; low rank = activator of Parkin recruitment, high rank = inhibitor
Protocol: 10 uL of 0.1 mg/mL Poly-D-Lys solution was added to 384-well plates for 5 minutes, followed by a PBS wash. Plates were dried for at least 2 hours. 50 μL of 600 000 HEK293 GFP Parkin cell/mL of DMEM was dispensed into each well. After 24 hours incubation to allow the cells to adhere, 200 nL of small molecules (or DMSO in columns 1, 2, 23 and 24) were pinned. Following a 16-hour incubation, 200 nL of 5 mM CCCP were added to all wells except columns 1 and 2, into which 200 nL of DMSO was added. Following 2-hour incubation, cells were fixed with 4% paraformaldehyde (PFA) and stained with 50 μL of 1 μg/mL DAPI solution for 15 minutes. After the final PBS wash, plates were ready for high content microscopy.
Images were acquired on IN Cell Analyzer 6000 (GE Healthcare), equipped with sCMOS camera (2048×2048), and 20x/0.45 NA Plan Fluor objective (Nikon) in open aperture mode using 1×1 binning. Image analysis was performed using Columbus Image Analysis System (PerkinElmer). Nuclei were initially detected in DAPI channel, followed by whole cell segmentation in GFP channel. Using PhenoLOGIC machine learning plug-in, cells were split into 2 sub-populations: cells with even GFP-Parkin distribution and cells where GFP-Parkin was localized to mitochondria. The percentage of cells with mitochondrial GFP-Parkin was determined per well. The molecules were then rank ordered based on z-score, which is calculated using the formula: […]
where x is the percentage of cells with mitochondrial GFP-Parkin for a specific small molecule, μ is the average percentage of cells with mitochondrial Parkin in positive control columns 23 and 24, where cells are treated with CCCP only.
These cell lines were screened across 2 biological replicates with compounds from the kinase inhibitor (n=480) and Prestwick (n=1120) collections. The 3-day screening protocol consisted of (1) seeding cells, (2) pinning small molecules at 4 μM concentration and (3) inducing mitophagy with CCCP, followed by processing of plates for high content imaging. Following image acquisition, DAPI staining was used to segment cells within each image. Supervised machine learning was used to classify cells into two classes: (1) cells with cytosolic Parkin distribution and (2) those with Parkin localized to mitochondria. […] Compounds which increased the proportion of class 2 cells across 2 biological replicates, compared to the CCCP-only treated cells (FIG. 10), as indicated by their z-score (FIG. 11), were considered hits.

HEK293 GFP Parkin cells [3] = test: Parkin recruitment assay
Protocol: HEK293 GFP Parkin cells were seeded into 12-well plates containing coverslips. Cells were treated with small molecules for 2 hours prior to mitophagy induction with 10 μM CCCP, unless indicated otherwise. Following fixation with 4% PFA, immunostaining was carried out using anti-ATP5A primary antibody and anti-mouse Alex Fluor 568.
To measure the percentage of cells with Parkin localized to mitochondria a 2 step process was employed: (1) whole cell segmentation based on GFP Parkin using CellProfiler software and (2) classification into Parkin distribution subpopulation using CellProfiler Analyst. The percentage of cells with Parkin localized to mitochondria was determined in each image. Images were taken at 20× magnification for this experiment, resulting in the classification of at least 300 cells in each treatment group per trial.

With `CN(C)CCOc1cc(-c2cn[nH]c2)ccc1NC(=O)[C@@H]1COc2ccccc2O1` [SR3677] the “cell viability, compound alone” value ([1]; 0.5 μM) was “did not affect cell viability”, the “viability of cells challenged with paraquat” value ([1]; varying concentrations with 500 μM paraquat) was “improved the viability of cells challenged with paraquat in a dose-dependent manner” and the “HK2 in the mitochondrial fraction” value (HK2; SH-SY5Y cells, 0.5 μM) was “More HK2 was observed in the mitochondrial fraction”. The “phosphorylation of HK2 (Phostag gels)” value (HK2; serum-starved cells, 10 or 30 minutes) was “Increased phosphorylation of HK2”, the “rank in the kinase inhibitor library screen (rank order by z-score)” value (HEK293 GFP Parkin cells [2]) was 71/480 and the “Parkin recruitment to damaged mitochondria” value (HEK293 GFP Parkin cells [3]; 0.5 μM, 17 hour and 2 hour pre-incubation, CCCP) was “increased Parkin recruitment to damaged mitochondria”. For the same compound, the EC50 (HEK293 GFP Parkin cells [3]; Homo sapiens, HEK293, 2 h pre-treatment, then 10 μM CCCP 1 h, read-out: EC50, percentage of cells with mitochondrial Parkin) was 57 nM, the “Parkin distribution in the absence of CCCP” value (HEK293 GFP Parkin cells [3]; compound alone) was “diffuse” and the “concentration at which the maximal effect on Parkin recruitment was achieved” value (HEK293 GFP Parkin cells [3]; dose series, CCCP) was ≤ 0.5 µM.
